We go through 15 compounds from patent US5063245A, “Corticotropin-releasing factor antagonism compounds” (Nova Pharmaceutical Corporation, priority 1990, dated 1991).

“Also recorded” adds a separate entry of the source. Where a name gives a salt, the structure may show the parent alone. Read-outs that look alike come from different tables or passages of the source. Ends that are not written are not given here.

The conditions of test [1]: intracerebroventricular (icv); cited from earlier work.
Another test addresses T1, CRF receptor (Rattus norvegicus, UniProt P35353).
T1 construct: the cerebral cortex was removed and the tissue homogenized; from tissue; host or cells: cerebral cortex membranes of male Sprague-Dawley rats
T1 sequence (P35353 24-415): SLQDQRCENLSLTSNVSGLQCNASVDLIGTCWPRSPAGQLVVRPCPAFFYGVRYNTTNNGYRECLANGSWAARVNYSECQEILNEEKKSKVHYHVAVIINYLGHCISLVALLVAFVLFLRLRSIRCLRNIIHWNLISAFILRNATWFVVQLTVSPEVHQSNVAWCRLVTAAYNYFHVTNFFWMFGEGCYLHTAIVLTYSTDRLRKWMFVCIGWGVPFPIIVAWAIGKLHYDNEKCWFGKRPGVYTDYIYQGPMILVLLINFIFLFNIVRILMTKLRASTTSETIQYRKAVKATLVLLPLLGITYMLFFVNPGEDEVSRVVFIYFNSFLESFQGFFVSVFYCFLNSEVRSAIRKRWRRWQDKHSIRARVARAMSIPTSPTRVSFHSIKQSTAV
Description: In vitro receptor binding: inhibition of specific binding of [125I]tyrosine-oCRF to rat cerebral cortex membranes. Conditions: [125I]Tyr-oCRF 50-100 pM, 2 hours at room temperature. On the procedure:
The potency of the compounds of the invention as inhibitors of the specific binding of radiolabeled CRF to rat cerebral cortex membranes was examined using a standard in vitro radioligand binding technique. […] The homogenate was centrifuged at 48,000×g for 10 minutes at 4° C. The supernatant was removed, the tissue pellet suspended in the original volume of fresh homogenization buffer using a Polytron and centrifuged as before. […] Incubation buffer consists of 50 mM Hepes (pH 7.0 at 22° C.) containing 10 mM MgCl2, 2 mM EGTA, 0.1 mM bacitracin, 100 KIU (kallikrein inhibitor units)/mL aprotinin and 0.1% BSA (bovine serum albumin). […] Nonspecific binding was determined in the presence of 1 μM oCRF. The binding reaction was allowed to proceed for 2 hours at room temperature. Bound radioligand was separated from the incubation medium by centrifugation in a Beckman microfuge for 5 minutes at 12,000×g. The supernatant was aspirated and the resulting pellet was washed with 1 mL of cold phosphate buffered saline (pH 7.2) containing 0.01% of Triton X-100.
Tyr-oCRF to rat cortical membranes was determined on at least three separate occasions using 8-10 concentrations of each compound and utilizing triplicate incubations. The IC50 and apparent Hill coefficient for each compound were calculated using a computer-assisted log-logit analysis.

Test [2] deals with CRF-stimulated adenylate cyclase. Description: Inhibition of CRF-stimulated adenylate cyclase activity (rat frontal cortex). The class given is biochemical. To be noted: 1 μM oCRF, 37° C., 10 minutes. The source says: CRF antagonist activity is established by the ability of the compounds to antagonize CRF-stimulated adenylate cyclase activity, it having been established that CRF receptors are coupled to a guanine nucleotide regulatory protein that activates adenylate cyclase [G. Aguilera et al., Neuroendocrinology, 43, 79 (1986); G. Battaglia et al., Synapse, 1, 572 (1987)].
(§1) Male Sprague-Dawley rats (175-250 g) were sacrificed by decapitation, the frontal cortex was dissected and homogenized in 30 volumes (w/v) of ice-cold buffer (50 mM Tris HCl, 10 mM MgCl2, 2 mM EGTA; pH 7.2 at 22° C.). The homogenate was centrifuged at 40,000×g for 3 minutes (4° C.), the supernatant discarded and the pellet resuspended in original volume of fresh homogenization buffer. Following centrifugation at 40,000×g for 30 minutes, the resulting pellet was suspended to a tissue concentration of 20 mg original wet weight of tissue per mL (approximately 40-60 μg protein/mL). For determination of basal adenylate cyclase activity, assays are carried out at 37° C. for 10 minutes in 250 μL of buffer containing 100 mM Tris HCl, 10 mM MgCl2, 0.4 mM EGTA, 0.1% BSA, 1 mM isobutylmethylxanthine (IBMX), 3 units/tube phosphocreatine kinase, 5 mM creatine phosphate, 100 μM guanosine. Maximal stimulation of adenylate cyclase activity was accomplished by the addition of 10^-6 M oCRF. Stimulated enzyme activity generally represented a 75-95% increase over basal levels. Reactions were initiated by the addition of tissue and terminated by the addition of 150 μL of 50 mM Tris HCl, 45 mM ATP, 2% sodium dodecyl sulfate (SDS), and [^3 H] cAMP (approximately 40,000 dpm). The [^3 H]cAMP was added to each assay tube to monitor recovery of cAMP during subsequent chromatography steps. Separation of [^32 P]cAMP from [^32 P]ATP was accomplished by sequential elution over Dowex and alumina columns. The eluate (4 mL) was collected in 20 mL scintillation vials to which 8 mL of Beckman EP fluor was added. Vials were shaken for 30 minutes prior to measuring ^3 H and ^32 P by scintillation counting. All data were fed directly from the liquid scintillation counter via RS232 port to a VAX 8300 computer. Individual data points were expressed as pmoles of cAMP formed/10 minutes/mg protein. Protein content of tissue samples was measured using the BioRad method with bovine serum albumin serving as the standard.
Determination of antagonist activity was accomplished by addition of at least six concentrations of the compound (10^-8 -10^-4 M), evaluated in triplicate, in the presence of a maximally stimulating concentration of oCRF (1 μM). IC50 values were derived from a log-logit transformation of the data on a Vax 8300.

A further test relates to adenylate cyclase. Put plainly: Stimulation of adenylate cyclase activity by oCRF (rat frontal cortex). Conditions: 10^-6 M oCRF, 37° C., 10 minutes. The class given is biochemical. On the procedure: as §1, with “Reactions were initiated by the addition of tissue and terminated by the addition of 150 μL of 50 mM Tris HCl, 45 mM ATP, 2% sodium dodecyl sulfate (SDS), and [^3 H] cAMP (approximately 40,000 dpm). The [^3 H]cAMP was added to each assay tube to monitor recovery of cAMP during subsequent chromatography steps. Separation of [^32 P]cAMP from [^32 P]ATP was accomplished by sequential elution over Dowex and alumina columns. The eluate (4 mL) was collected in 20 mL scintillation vials to which 8 mL of Beckman EP fluor was added. Vials were shaken for 30 minutes prior to measuring ^3 H and ^32 P by scintillation counting. All data were fed directly from the liquid scintillation counter via RS232 port to a VAX 8300 computer.” left out

Where [3] appears, read: Table II, Formula II (disulfides), read-out: Inhibition of CRF Binding, Rat Cerebral Cortex Membrane, IC50.
[4] abbreviates: Table II, Formula II (disulfides).
The mark [5] stands for this setting: Table I, Formula I, read-out: Inhibition of CRF Binding, Rat Cerebral Cortex Membrane, IC50.
The mark [6] stands for this setting: Inhibition of CRF Binding, Rat Cerebral Cortex Membrane, IC50, Table I, Formula I.

Turning to “CRF: corticotropin releasing factor (SEEPPISLDLTFHLLREVLEMARAEQLAQQAHSNRKLMEII; ends and bridges not checked; UniProt P06850 154-194, looked up)”, the “effect of icv injection of CRF (in words)” value in test [1] was “elicits behavioral activation; also recorded: produces a long-lasting activation of the electroencephalogram; also recorded: stimulates the sympathoadrenomedullary pathway; also recorded: increases heart rate and blood pressure; also recorded: increases oxygen consumption; also recorded: alters gastrointestinal activity; also recorded: suppresses food consumption; also recorded: compromises immune function”.

For `CCc1c(SSc2c(CC)n(C)n(-c3ccccc3)c2=O)c(=O)n(-c2ccccc2)n1C` [Formula II: Ph, CH3, C2 H5, 3-ethyl-2-methyl-5-oxo-1-phenyl-3-pyrazolin-4-yl disulfide], the IC50 (on CRF receptor (setting [3]); in test [2] (setting [4])) was 3.3 µM throughout. Turning to `Cc1c(SSc2c(C)n(C)n(-c3ccccc3)c2=O)c(=O)n(-c2ccccc2)n1C` [Formula II: Ph, CH3, CH3, HCl, 2,3-Dimethyl-5-Oxo-1-Phenyl-3-Pyrazolin-4-yl Disulfide], the figures for the IC50 (at CRF receptor (setting [3]); in test [2] (setting [4])) were 6.4 µM and 2.5 µM, respectively. As to `CCc1c(SC#N)c(=O)n(-c2ccccc2)n1C` [Formula I: Ph, CH3, CH2 CH3, SCN, 3-ethyl-2-methyl-5-oxo-1-phenyl-3-pyrazolin-4-yl thiocyanate], the IC50 (commonly the concentration that inhibits the measured activity by half) came out at 19.1 µM on CRF receptor (setting [5]) and 31.7 µM in test [2] (Table I, Formula I). Consider `Cc1c(SC#N)c(=O)n(C)n1Cc1ccccc1` [2-benzyl-1,3-dimethyl-5-oxo-3-pyrazolin-4-yl thiocyanate, hemifumarate], for which the IC50 at CRF receptor (setting [6]) amounted to 33.6 µM; in test [2] (Table I, Formula I), 40.1 µM.

For the compound `Cc1c(SC(Cl)(Cl)Cl)c(=O)n(-c2ccccc2)n1C` [Formula I: Ph, CH3, CH3, SCCl3, 2,3-Dimethyl-5-Oxo-1-Phenyl-3-4-trichloromethylthio-Pyrazoline], the IC50 is 20.4 µM at CRF receptor (setting [6]) and 9.6 µM in test [2] (Table I, Formula I). On to `CCn1c(C)c(SSc2c(C)n(CC)n(-c3ccccc3)c2=O)c(=O)n1-c1ccccc1` [Formula II: Ph, C2 H5, CH3, 2-ethyl-3-methyl-5-oxo-1-phenyl-3-pyrazolin-4-yl disulfide], for which the IC50 on CRF receptor (setting [3]) was found to be 4.8 µM; in test [2] (setting [4]), 1 µM. Take `CCCn1c(C)c(SC#N)c(=O)n1-c1ccccc1` [Formula I: Ph, (CH2)2 CH3, CH3, SCN, 3-methyl-5-oxo-1-phenyl-2-propyl-3-pyrazolin-4-yl thiocyanate]: the IC50 at CRF receptor (setting [6]) turned out to be 32 µM; in test [2] (Table I, Formula I), 16.9 µM. For `Cc1c(SC#N)c(=O)n(C2CCCCC2)n1C` [Formula I: C6 H11, CH3, CH3, SCN, 1-cyclohexyl-2,3-dimethyl-5-oxo-3-pyrazolin-4-yl thiocyanate], the IC50 on CRF receptor (setting [5]) was 15 µM; in test [2] (Table I, Formula I), 35.2 µM. Take `Cc1c(SC#N)c(=O)n(-c2ccccc2)n1C` [Formula I: Ph, CH3, CH3, SCN, 2,3-dimethyl-5-oxo-1-phenyl-3-pyrazolin-4-yl thiocyanate]: the IC50 worked out at 16 µM at CRF receptor (setting [5]) and 19.5 µM in test [2] (Table I, Formula I). For `CC(=O)Nc1cccc(-c2c(SC#N)c(=O)n(-c3ccccc3)n2C)c1` [Formula I: Ph, CH3,3-AcNHPh, SCN, 2-methyl-5-oxo-1-phenyl-3-(3-acetamidophenyl)-3-pyrazolin-4-yl thiocyanate], in that order: 6.5 µM and 3 µM. In the case of “oCRF: ovine CRF, a 41 residue straight chain peptide”, in the test on adenylate cyclase, the “Stimulated enzyme activity, increase over basal levels” value is recorded as 75-95%. As for `CCn1c(C)c(SC#N)c(=O)n1-c1ccc(S(C)(=O)=O)cc1` [Formula I: 4-CH3 SO2 Ph, C2 H5, CH3, SCN, 2-ethyl-3-methyl-5-oxo-1-(4-methylsulfonylphenyl)-3-pyrazolin-4-yl thiocyanate], the IC50 stood at 17 µM at CRF receptor (setting [5]) and 11.4 µM in test [2] (Table I, Formula I). Take `CCn1c(C)c(SC#N)c(=O)n1CC` [Formula I: C2 H5, C2 H5, CH3, SCN, 1,2-diethyl-3-methyl-5-oxo-3-pyrazolin-4-yl thiocyanate]: the IC50 on CRF receptor (setting [6]) is 111 µM; in test [2] (Table I, Formula I), 29.4 µM. For the compound `CCn1c(C)c(SC#N)c(=O)n1Cc1ccccc1` [Formula I: CH2 Ph, CH2 CH3, CH3, SCN, 1-benzyl-2-ethyl-3-methyl-5-oxo-3-pyrazolin-4-yl thiocyanate], the IC50 at CRF receptor (setting [5]) was determined as 17 µM; in test [2] (Table I, Formula I), 39.9 µM.
